# Experimental data as given in patent EP2530078A1, “THIAZOLE DERIVATIVE” (Takeda Pharmaceutical Company Limited, priority 2010, dated 2011).
# Target: T1, human GPR52 (Homo sapiens, UniProt Q9Y2T5)
# T1 construct: expressed in transfected cells; host or cells: CHO(dhfr-) cells
# Experiment: Increase of intracellular cAMP concentration in human GPR52-expressing CHO cell (AlphaScreen cAMP assay)
# Assay type: cell-based
# Details: 0.5 h; test compound 10 µm, 37°C, 30 min, human GPR52-expressing CHO(dhfr-) cells; 100% = cAMP with 1 µM N-(2-hydroxyethyl)-3-[2-[3-(trifluoromethyl)benzyl]-1-benzofuran-4-yl]benzamide, 0% = DMSO; read-out: GPR52 agonist activity (%)
# Experimental: Increase of intracellular cAMP concentration in human GPR52-expressing CHO cell
# Using OptiPlate-384 (PerkinElmer Inc.), 1×10^4 human GPR52-expressing CHO(dhfr-) cells were incubated together with a test compound ([…]) in an assay buffer (30 µL, HBSS (containing Ca^2+ and Mg^2+), 0.5% BSA, 100 µM IBMX, 100 µM Ro20-1724, 5 mM HEPES (pH 7.55)) at 37°C for 30 min. Thereafter, according to the protocol of AlphaScreen cAMP Assay Kit (PerkinElmer Inc.), the intracellular cAMP concentration was measured by EnVision (PerkinElmer Inc.). The GPR52 agonist activity was calculated, assuming the intracellular cAMP concentration in the presence of 1 µM N-(2-hydroxyethyl)-3-[2-[3-(trifluoromethyl)benzyl]-1-benzofuran-4-yl]benzamide to be 100% and assuming the intracellular cAMP concentration when DMSO was added instead of the test compound to be 0%.
# T1 sequence (Q9Y2T5 whole entry): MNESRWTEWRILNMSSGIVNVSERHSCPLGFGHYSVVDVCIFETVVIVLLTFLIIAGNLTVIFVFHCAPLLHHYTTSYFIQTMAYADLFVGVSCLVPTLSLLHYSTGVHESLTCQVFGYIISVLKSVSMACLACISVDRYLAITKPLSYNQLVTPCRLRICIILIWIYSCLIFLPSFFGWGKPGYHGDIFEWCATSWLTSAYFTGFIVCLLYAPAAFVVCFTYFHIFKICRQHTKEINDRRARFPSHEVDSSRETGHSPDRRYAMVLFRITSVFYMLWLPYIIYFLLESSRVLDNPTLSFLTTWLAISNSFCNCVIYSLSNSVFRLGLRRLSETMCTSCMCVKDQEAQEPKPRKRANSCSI
row,Compound,activation at 10 µM
1,"Cc1nc(Cc2cc(F)cc(Cl)c2)sc1NC(=O)c1cc([N+](=O)[O-])nn1C [Example 158, N-[2-(3-chloro-5-fluorobenzyl)-4-methyl-1,3-thiazol-5-yl]-1-methyl-3-nitro-1H-pyrazole-5-carboxamide]",69%
2,"CCOC(=O)c1cc(C(=O)Nc2sc(Cc3cc(F)cc(Cl)c3)nc2C)n(C)n1 [Example 159, ethyl 5-{[2-(3-chloro-5-fluorobenzyl)-4-methyl-1,3-thiazol-5-yl]carbamoyl}-1-methyl-1H-pyrazole-3-carboxylate]",71%
3,"Cc1nc(Cc2ccc(F)c(F)c2)sc1NC(=O)c1ccnn1C [Example 160, N-[2-(3,4-difluorobenzyl)-4-methyl-1,3-thiazol-5-yl]-1-methyl-1H-pyrazole-5-carboxamide]",74%
4,"COCCn1nccc1C(=O)Nc1sc(Cc2cc(F)cc(Cl)c2)nc1C [Example 161, N-[2-(3-chloro-5-fluorobenzyl)-4-methyl-1,3-thiazol-5-yl]-1-(2-methoxyethyl)-1-pyrazole-5-carboxamide]",81%
5,"Cc1nc(Cc2cc(F)cc(Cl)c2)sc1NC(=O)c1ccnn1CC(C)C [Example 162, N-[2-(3-chloro-5-fluorobenzyl)-4-methyl-1,3-thiazol-5-yl]-1-(2-methylpropyl)-1H-pyrazole-5-carboxamide]",70%
6,"Cc1nc(Cc2cc(F)cc(Cl)c2)sc1NC(=O)c1ccnn1CC(F)(F)F [Example 163, N-[2-(3-chloro-5-fluorobenzyl)-4-methyl-1,3-thiazol-5-yl]-1-(2,2,2-trifluoroethyl)-1H-pyrazole-5-carboxamide]",78%
7,"Cc1nc(Cc2cc(F)cc(Cl)c2)sc1NC(=O)c1cc(C(N)=O)nn1C [Example 164, N^5-[2-(3-chloro-5-fluorobenzyl)-4-methyl-1,3-thiazol-5-yl]-1-methyl-1H-pyrazole-3,5-dicarboxamide]",80%
8,"Cc1nc(Cc2cc(F)cc(Cl)c2)sc1NC(=O)c1cc(CO)nn1C [Example 166, N-[2-(3-chloro-5-fluorobenzyl)-4-methyl-1,3-thiazol-5-yl]-3-(hydroxymethyl)-1-methyl-1H-pyrazole-5-carboxamide]",88%
9,"Cc1nc(Cc2cc(F)cc(Cl)c2)sc1NC(=O)c1ccc(=O)n(C)c1 [Example 167, N-[2-(3-chloro-5-fluorobenzyl)-4-methyl-1,3-thiazol-5-yl]-1-methyl-6-oxo-1,6-dihydropyridine-3-carboxamide]",70%
10,"Cc1nc(Cc2cc(F)cc(Cl)c2)sc1NC(=O)c1nc([N+](=O)[O-])cn1C [Example 169, N-[2-(3-chloro-5-fluorobenzyl)-4-methyl-1,3-thiazol-5-yl]-1-methyl-4-nitro-1H-imidazole-2-carboxamide]",76%
11,"Cc1nc(Cc2cc(F)cc(Cl)c2)sc1NC(=O)c1cnn(C)c1 [Example 171, N-[2-(3-chloro-5-fluorobenzyl)-4-methyl-1,3-thiazol-5-yl]-1-methyl-1H-pyrazole-4-carboxamide]",70%
12,"Cc1nc(Cc2cc(F)cc(Cl)c2)sc1NC(=O)C1(S(C)(=O)=O)CC1 [Example 172, N-[2-(3-chloro-5-fluorobenzyl)-4-methyl-1,3-thiazol-5-yl]-1-(methylsulfonyl)cyclopropanecarboxamide]",89%
13,"COCCNC(=O)C1(C(=O)Nc2sc(Cc3cc(F)cc(Cl)c3)nc2C)CC1 [Example 175, N-[2-(3-chloro-5-fluorobenzyl)-4-methyl-1,3-thiazol-5-yl]-N'-(2-methoxyethyl)cyclopropane-1,1-dicarboxamide]",71%
14,"CC(=O)Nc1cn(C)c(C(=O)Nc2sc(Cc3cc(F)cc(Cl)c3)nc2C)n1 [Example 176, 4-(acetylamino)-N-[2-(3-chloro-5-fluorobenzyl)-4-methyl-1,3-thiazol-5-yl]-1-methyl-1H-imidazole-2-carboxamide]",99%
15,"CCc1cc(C(=O)Nc2sc(Cc3cc(F)cc(Cl)c3)nc2C)n(C)n1 [Example 177, N-[2-(3-chloro-5-fluorobenzyl)-4-methyl-1,3-thiazol-5-yl]-3-ethyl-1-methyl-1H-pyrazole-5-carboxamide]",86%
16,"Cc1nc(Cc2cc(F)cc(Cl)c2)sc1NC(=O)c1c(C)ncn1C [Example 179, N-[2-(3-chloro-5-fluorobenzyl)-4-methyl-1,3-thiazol-5-yl]-1,4-dimethyl-1H-imidazole-5-carboxamide]",80%
17,"Cc1nc(Cc2cc(F)cc(Cl)c2)sc1NC(=O)c1ncn(C)c1C [Example 180, N-[2-(3-chloro-5-fluorobenzyl)-4-methyl-1,3-thiazol-5-yl]-1,5-dimethyl-1H-imidazole-4-carboxamide]",75%

row,Compound,activation at 10 µM
1,"Cc1nc(Cc2cc(F)cc(C(F)(F)F)c2)sc1NC(=O)c1ccnn1C [Example 181, N-{2-[3-fluoro-5-(trifluoromethyl)benzyl]-4-methyl-1,3-thiazol-5-yl}-1-methyl-1H-pyrazole-5-carboxamide]",91%
2,"Cc1nc(Cc2cc(F)cc(Cl)c2)sc1NC(=O)c1scnc1C [Example 184, N-[2-(3-chloro-5-fluorobenzyl)-4-methyl-1,3-thiazol-5-yl]-4-methyl-1,3-thiazole-5-carboxamide]",87%
3,"Cc1nc(Cc2cc(F)cc(Cl)c2)sc1NC(=O)c1cccn1C [Example 185, N-[2-(3-chloro-5-fluorobenzyl)-4-methyl-1,3-thiazol-5-yl]-1-methyl-1H-pyrrole-2-carboxamide]",81%
4,"Cc1nc(Cc2cc(F)cc(Cl)c2)sc1NC(=O)c1c(C)noc1C [Example 186, N-[2-(3-chloro-5-fluorobenzyl)-4-methyl-1,3-thiazol-5-yl]-3,5-dimethylisoxazole-4-carboxamide]",94%
5,"Cc1nc(Cc2cc(F)cc(Cl)c2)sc1NC(=O)c1c(Cl)cnn1C [Example 206, 4-chloro-N-[2-(3-chloro-5-fluorobenzyl)-4-methyl-1,3-thiazol-5-yl]-1-methyl-1H-pyrazole-5-carboxamide]",74%
6,"Cc1nc(Cc2cc(F)cc(Cl)c2)sc1NC(=O)C1CCS(=O)(=O)CC1 [Example 208, N-[2-(3-chloro-5-fluorobenzyl)-4-methyl-1,3-thiazol-5-yl]-tetrahydro-2H-thiopyran-4-carboxamide 1,1-dioxide]",72%
7,"Cc1nc(C(O)c2cccc(C(F)(F)F)c2)sc1NC(=O)c1ccnn1C (stereo not shown) [Example 210, N-(2-{hydroxy[3-(trifluoromethyl)phenyl]methyl}-4-methyl-1,3-thiazol-5-yl)-1-methyl-1H-pyrazole-5-carboxamide]",82%
8,"Cc1nc(Cc2cc(F)cc(Cl)c2)sc1NC(=O)C1CCS(=O)(=O)C1 (stereo not shown) [Example 216, N-[2-(3-chloro-5-fluorobenzyl)-4-methyl-1,3-thiazol-5-yl]-tetrahydrothiophene-3-carboxamide 1,1-dioxide]",77%
9,"COc1cccc(Cc2nc(C)c(NC(=O)c3ccnn3C)s2)c1 [Example 219, N-[2-(3-methoxybenzyl)-4-methyl-1,3-thiazol-5-yl]-1-methyl-1H-pyrazole-5-carboxamide]",82%
10,"Cc1nc(Cc2cc(F)cc(F)c2)sc1NC(=O)c1ccnn1C [Example 220, N-[2-(3,5-difluorobenzyl)-4-methyl-1,3-thiazol-5-yl]-1-methyl-1H-pyrazole-5-carboxamide]",79%
11,"Cc1cccc(Cc2nc(C)c(NC(=O)c3ccnn3C)s2)c1 [Example 221, 1-methyl-N-[4-methyl-2-(3-methylbenzyl)-1,3-thiazol-5-yl]-1H-pyrazole-5-carboxamide]",90%
12,"Cc1nc(Cc2cccc(Br)c2)sc1NC(=O)c1ccnn1C [Example 224, N-[2-(3-bromobenzyl)-4-methyl-1,3-thiazol-5-yl]-1-methyl-1H-pyrazole-5-carboxamide]",80%
13,"Cc1nc(Cc2cccc(C3CC3)c2)sc1NC(=O)c1ccnn1C [Example 227, N-[2-(3-cyclopropylbenzyl)-4-methyl-1,3-thiazol-5-yl]-1-methyl-1H-pyrazole-5-carboxamide]",101%
14,"Cc1nc(Cc2cc(F)cc(Cl)c2)sc1NC(=O)c1cccc(S(C)(=O)=O)c1 [Example 228, N-[2-(3-chloro-5-fluorobenzyl)-4-methyl-1,3-thiazol-5-yl]-3-(methylsulfonyl)benzamide]",69%
15,"Cc1nc(Cc2cc(F)cc(Cl)c2)sc1NC(=O)c1cc(CC#N)nn1C [Example 230, N-[2-(3-chloro-5-fluorobenzyl)-4-methyl-1,3-thiazol-5-yl]-3-(cyanomethyl)-1-methyl-1H-pyrazole-5-carboxamide]",71%
16,"Cc1nc(Cc2cccc(S(C)(=O)=O)c2)sc1NC(=O)c1ccnn1C [Example 233, 1-methyl-N-{4-methyl-2-[3-(methylsulfonyl)benzyl]-1,3-thiazol-5-yl}-1H-pyrazole-5-carboxamide]",81%
17,"Cc1nc(Cc2cc(F)cc(Cl)c2)sc1NC(=O)c1ccnn1CC(N)=O [Example 234, 1-(carbamoylmethyl)-N-[2-(3-chloro-5-fluorobenzyl)-4-methyl-1,3-thiazol-5-yl]-1H-pyrazole-5-carboxamide]",78%
